System: 12 single or co-culture in vitro tissue models of primary cells
Assay: Culture/co-culture cell model panel, extracellular biomarkers (DiscoveRx); for CCL2/MCP-1: reference of the scale not given here; for CD141/Thrombomodulin: reference of the scale not given here; for CD142/Tissue Factor: reference of the scale not given here; for CD38: reference of the scale not given here; for CD40: reference of the scale not given here; for CD69: reference of the scale not given here; for CXCL8/IL-8: reference of the scale not given here; for CXCL9/MIG: reference of the scale not given here; for IL-1alpha: reference of the scale not given here; for M-CSF: reference of the scale not given here; for PBMC Cytotoxicity: reference of the scale not given here; for SRB: reference of the scale not given here; for sPGE2: reference of the scale not given here; for sTNF-alpha: reference of the scale not given here
Assay type: cell-based, human
[1] = HDF3CGF stimulated fibroblasts, 1.00E3 nM
[2] = HDF3CGF stimulated fibroblasts, 1.00E4 nM
[3] = HPNo Huvec+PBMC unstimulated, 1.00E0 nM
[4] = HPNo Huvec+PBMC unstimulated, 1.00E1 nM
[5] = HPNo Huvec+PBMC unstimulated, 1.00E2 nM
[6] = HPNo Huvec+PBMC unstimulated, 1.00E3 nM
[7] = HPNo Huvec+PBMC unstimulated, 1.00E4 nM

Cn1ncc2cc(-c3cnc(N)c(Cl)c3N3CCC4(CCNC4=O)CC3)ccc21 [CMPD 3]
EGFR [1]: -0.071
M-CSF [1]: -0.083
MMP-1 [1]: 0.021
PAI-I [1]: -0.046
Proliferation_72hr [1]: -0.287
SRB [1]: -0.024
TIMP-1 [1]: -0.058
TIMP-2 [1]: 0.170
CCL2/MCP-1 [2]: -0.120
CD54/ICAM-1 [2]: -0.048
CD106/VCAM-1 [2]: 0.030
CXCL8/IL-8 [2]: -0.092
CXCL9/MIG [2]: -0.077
CXCL10/IP-10 [2]: 0.009
CXCL11/I-TAC [2]: -0.045
Collagen I [2]: 0.097
Collagen III [2]: 0.0018
EGFR [2]: 0.023
M-CSF [2]: -0.150
MMP-1 [2]: 0.056
PAI-I [2]: -0.210
Proliferation_72hr [2]: -0.515
SRB [2]: -0.209
TIMP-1 [2]: -0.045
TIMP-2 [2]: 0.276
CCL2/MCP-1 [3]: 0.009
CD38 [3]: 0.004
CD40 [3]: -0.028
CD106/VCAM-1 [3]: 0.042
CD141/Thrombomodulin [3]: 0.010
CD142/Tissue Factor [3]: 0.089
CCL2/MCP-1 [4]: 0.017
CD38 [4]: -0.049
CD40 [4]: -0.059
CD106/VCAM-1 [4]: 0.134
CD141/Thrombomodulin [4]: -0.016
CD142/Tissue Factor [4]: 0.039
CCL2/MCP-1 [5]: 0.001
CD38 [5]: -0.011
CD40 [5]: -0.067
CD106/VCAM-1 [5]: 0.206
CD141/Thrombomodulin [5]: 0.008
CD142/Tissue Factor [5]: 0.039
CCL2/MCP-1 [6]: -0.049
CD38 [6]: -0.041
CD40 [6]: -0.024
CD106/VCAM-1 [6]: 0.098
CD141/Thrombomodulin [6]: 0.007
CD142/Tissue Factor [6]: 0.007
CCL2/MCP-1 [7]: -0.004
CD38 [7]: -0.070
CD40 [7]: -0.022
CD106/VCAM-1 [7]: 0.069
CD141/Thrombomodulin [7]: 0.032
CD142/Tissue Factor [7]: -0.024
CD69 (HPNo, 1.00E0 nM): -0.011
CXCL8/IL-8 (HPNo, 1.00E0 nM): 0.034
CXCL9/MIG (HPNo, 1.00E0 nM): 0.060
M-CSF (HPNo, 1.00E0 nM): 0.037
SRB (HPNo, 1.00E0 nM): -0.058
sPGE2 (HPNo, 1.00E0 nM): 0.025
sTNF-alpha (HPNo, 1.00E0 nM): 0.138
CD69 (HPNo, 1.00E1 nM): -0.011
CXCL8/IL-8 (HPNo, 1.00E1 nM): 0.00458
CXCL9/MIG (HPNo, 1.00E1 nM): 0.092
M-CSF (HPNo, 1.00E1 nM): 0.011
SRB (HPNo, 1.00E1 nM): -0.00131
sPGE2 (HPNo, 1.00E1 nM): 0.022
sTNF-alpha (HPNo, 1.00E1 nM): 0.068
CD69 (HPNo, 1.00E2 nM): 0.017
CXCL8/IL-8 (HPNo, 1.00E2 nM): -0.00647
CXCL9/MIG (HPNo, 1.00E2 nM): 0.045
M-CSF (HPNo, 1.00E2 nM): -0.043
SRB (HPNo, 1.00E2 nM): 0.006
sPGE2 (HPNo, 1.00E2 nM): 0.139
sTNF-alpha (HPNo, 1.00E2 nM): 0.492
CD69 (HPNo, 1.00E3 nM): -0.017
CXCL8/IL-8 (HPNo, 1.00E3 nM): -0.012
CXCL9/MIG (HPNo, 1.00E3 nM): 0.014
M-CSF (HPNo, 1.00E3 nM): -0.056
SRB (HPNo, 1.00E3 nM): 0.008
sPGE2 (HPNo, 1.00E3 nM): 0.056
sTNF-alpha (HPNo, 1.00E3 nM): -0.00633
CD69 (HPNo, 1.00E4 nM): 0.004
CXCL8/IL-8 (HPNo, 1.00E4 nM): -0.002
CXCL9/MIG (HPNo, 1.00E4 nM): -0.052
M-CSF (HPNo, 1.00E4 nM): -0.079
SRB (HPNo, 1.00E4 nM): -0.058
sPGE2 (HPNo, 1.00E4 nM): 0.016
sTNF-alpha (HPNo, 1.00E4 nM): 0.025
CCL2/MCP-1 (LPS Huvec+PBMC, 1.00E0 nM): 0.009
CD40 (LPS Huvec+PBMC, 1.00E0 nM): -0.011
CD69 (LPS Huvec+PBMC, 1.00E0 nM): 0.028
CD106/VCAM-1 (LPS Huvec+PBMC, 1.00E0 nM): 0.028
CD141/Thrombomodulin (LPS Huvec+PBMC, 1.00E0 nM): 0.019
CD142/Tissue Factor (LPS Huvec+PBMC, 1.00E0 nM): 0.057
CXCL8/IL-8 (LPS Huvec+PBMC, 1.00E0 nM): 0.020
IL-1alpha (LPS Huvec+PBMC, 1.00E0 nM): 0.064
M-CSF (LPS Huvec+PBMC, 1.00E0 nM): 0.051
SRB (LPS Huvec+PBMC, 1.00E0 nM): -0.018
sPGE2 (LPS Huvec+PBMC, 1.00E0 nM): 0.033
sTNF-alpha (LPS Huvec+PBMC, 1.00E0 nM): 0.017
CCL2/MCP-1 (LPS Huvec+PBMC, 1.00E1 nM): -0.00212
CD40 (LPS Huvec+PBMC, 1.00E1 nM): -0.078
CD69 (LPS Huvec+PBMC, 1.00E1 nM): -0.00157
CD106/VCAM-1 (LPS Huvec+PBMC, 1.00E1 nM): 0.056
CD141/Thrombomodulin (LPS Huvec+PBMC, 1.00E1 nM): 0.042
CD142/Tissue Factor (LPS Huvec+PBMC, 1.00E1 nM): 0.050
CXCL8/IL-8 (LPS Huvec+PBMC, 1.00E1 nM): -0.028
IL-1alpha (LPS Huvec+PBMC, 1.00E1 nM): -0.012
M-CSF (LPS Huvec+PBMC, 1.00E1 nM): -0.018
SRB (LPS Huvec+PBMC, 1.00E1 nM): -0.053
sPGE2 (LPS Huvec+PBMC, 1.00E1 nM): 0.128
sTNF-alpha (LPS Huvec+PBMC, 1.00E1 nM): 0.024
CCL2/MCP-1 (LPS Huvec+PBMC, 1.00E2 nM): -0.069
CD40 (LPS Huvec+PBMC, 1.00E2 nM): -0.092
CD69 (LPS Huvec+PBMC, 1.00E2 nM): 0.048
CD106/VCAM-1 (LPS Huvec+PBMC, 1.00E2 nM): 0.047
CD141/Thrombomodulin (LPS Huvec+PBMC, 1.00E2 nM): 0.046
CD142/Tissue Factor (LPS Huvec+PBMC, 1.00E2 nM): 0.071
CXCL8/IL-8 (LPS Huvec+PBMC, 1.00E2 nM): -0.091
IL-1alpha (LPS Huvec+PBMC, 1.00E2 nM): -0.007
M-CSF (LPS Huvec+PBMC, 1.00E2 nM): -0.020
SRB (LPS Huvec+PBMC, 1.00E2 nM): -0.076
sPGE2 (LPS Huvec+PBMC, 1.00E2 nM): 0.096
sTNF-alpha (LPS Huvec+PBMC, 1.00E2 nM): 0.028
CCL2/MCP-1 (LPS Huvec+PBMC, 1.00E3 nM): -0.112
CD40 (LPS Huvec+PBMC, 1.00E3 nM): -0.089
CD69 (LPS Huvec+PBMC, 1.00E3 nM): 0.015
CD106/VCAM-1 (LPS Huvec+PBMC, 1.00E3 nM): 0.022
CD141/Thrombomodulin (LPS Huvec+PBMC, 1.00E3 nM): 0.052
CD142/Tissue Factor (LPS Huvec+PBMC, 1.00E3 nM): 0.071
CXCL8/IL-8 (LPS Huvec+PBMC, 1.00E3 nM): -0.169
IL-1alpha (LPS Huvec+PBMC, 1.00E3 nM): -0.064
M-CSF (LPS Huvec+PBMC, 1.00E3 nM): -0.008
SRB (LPS Huvec+PBMC, 1.00E3 nM): -0.082
sPGE2 (LPS Huvec+PBMC, 1.00E3 nM): 0.040
sTNF-alpha (LPS Huvec+PBMC, 1.00E3 nM): -0.030
CCL2/MCP-1 (LPS Huvec+PBMC, 1.00E4 nM): -0.187
CD40 (LPS Huvec+PBMC, 1.00E4 nM): -0.133
CD69 (LPS Huvec+PBMC, 1.00E4 nM): -0.043
CD106/VCAM-1 (LPS Huvec+PBMC, 1.00E4 nM): 0.00362
CD141/Thrombomodulin (LPS Huvec+PBMC, 1.00E4 nM): 0.038
CD142/Tissue Factor (LPS Huvec+PBMC, 1.00E4 nM): 0.121
CXCL8/IL-8 (LPS Huvec+PBMC, 1.00E4 nM): -0.222
IL-1alpha (LPS Huvec+PBMC, 1.00E4 nM): -0.226
M-CSF (LPS Huvec+PBMC, 1.00E4 nM): -0.022
SRB (LPS Huvec+PBMC, 1.00E4 nM): -0.142
sPGE2 (LPS Huvec+PBMC, 1.00E4 nM): 0.008
sTNF-alpha (LPS Huvec+PBMC, 1.00E4 nM): -0.328
CCL2/MCP-1 (SAg, 1.00E0 nM): 0.030
CD38 (SAg, 1.00E0 nM): 0.023
CD40 (SAg, 1.00E0 nM): -0.041
CD69 (SAg, 1.00E0 nM): 0.00162
CXCL8/IL-8 (SAg, 1.00E0 nM): 0.064
CXCL9/MIG (SAg, 1.00E0 nM): 0.013
PBMC Cytotoxicity (SAg, 1.00E0 nM): 0.039
Proliferation (SAg, 1.00E0 nM): 0.019
SRB (SAg, 1.00E0 nM): -0.013
CCL2/MCP-1 (SAg, 1.00E1 nM): -0.016
CD38 (SAg, 1.00E1 nM): -0.043
CD40 (SAg, 1.00E1 nM): -0.128
CD69 (SAg, 1.00E1 nM): 0.037
CXCL8/IL-8 (SAg, 1.00E1 nM): -0.047
CXCL9/MIG (SAg, 1.00E1 nM): -0.015
PBMC Cytotoxicity (SAg, 1.00E1 nM): 0.014
Proliferation (SAg, 1.00E1 nM): 0.030
SRB (SAg, 1.00E1 nM): -0.033
CCL2/MCP-1 (SAg, 1.00E2 nM): -0.038
CD38 (SAg, 1.00E2 nM): -0.050
CD40 (SAg, 1.00E2 nM): -0.143
CD69 (SAg, 1.00E2 nM): 0.053
CXCL8/IL-8 (SAg, 1.00E2 nM): -0.167
CXCL9/MIG (SAg, 1.00E2 nM): -0.040
PBMC Cytotoxicity (SAg, 1.00E2 nM): 0.014
Proliferation (SAg, 1.00E2 nM): 0.018
SRB (SAg, 1.00E2 nM): -0.052
CCL2/MCP-1 (SAg, 1.00E3 nM): -0.092
CD38 (SAg, 1.00E3 nM): -0.050
CD40 (SAg, 1.00E3 nM): -0.108
CD69 (SAg, 1.00E3 nM): 0.059
CXCL8/IL-8 (SAg, 1.00E3 nM): -0.271
CXCL9/MIG (SAg, 1.00E3 nM): -0.072
PBMC Cytotoxicity (SAg, 1.00E3 nM): -0.014
Proliferation (SAg, 1.00E3 nM): 0.007
SRB (SAg, 1.00E3 nM): -0.055
CCL2/MCP-1 (SAg, 1.00E4 nM): -0.171
CD38 (SAg, 1.00E4 nM): -0.109
CD40 (SAg, 1.00E4 nM): -0.222
CD69 (SAg, 1.00E4 nM): -0.076
CXCL8/IL-8 (SAg, 1.00E4 nM): -0.221
CXCL9/MIG (SAg, 1.00E4 nM): -0.086
PBMC Cytotoxicity (SAg, 1.00E4 nM): -0.027
Proliferation (SAg, 1.00E4 nM): -0.217
SRB (SAg, 1.00E4 nM): -0.150

From PMC5224920, “Assessing the mechanism and therapeutic potential of modulators of the human Mediator complex-associated protein kinases” (eLife, 2016)
